In experiment [1] the test system is ELK1-dependent promoter activation by AR. The experiment is described as follows: Primary screening assay: luciferase reporter in recombinant HeLa cells (Gal4-TATA-Luc, Gal4-ELK1, AR) treated with testosterone. The experiment is classed as cell-based, human. An excerpt:
FIG. 6A is a schematic diagram of the reporter system for the primary screening assay. Recombinant HeLa cells used in this assay harbor the Gal4-TATA-Luc promoter-reporter, and stably express a Gal4-ELK1 fusion protein as well as the androgen receptor (AR). Gal4-ELK1 is bound to the Gal4 elements in the promoter. In the absence of testosterone (small circle), AR is localized in the cytoplasm. When testosterone is present it binds to AR causing AR to translocate to the nucleus where it then binds to Gal4-ELK1 and activates the downstream luciferase reporter.
HeLa HLR cells obtained from Dr. Johann Hofman (Innsbruck Medical University), which were originally designed to serve as a cell-based assay system to measure modulation of MAPK activity. HeLa HLR cells have a stably integrated minimal promoter-luciferase reporter containing five upstream Gal4 elements (Gal4-TATA-Luc) and also constitutively express a Gal4-ELK1 fusion protein in which the Gal4 DNA binding domain is substituted for the ETS DNA binding domain of ELK1. In order to produce recombinant cell lines for high throughput screening and counter screening of small molecule libraries, HeLa HLR were stably transduced with a vector expressing the full-length AR. A sequence encoding the full length AR (SEQ ID NO:9) was subcloned from the pCMV expression vector (Origene) into the pCDH-CMV-MCS-EF1-Puro cDNA Cloning and Expression Vector (System Biosciences) at NheI (upstream) and BamHI (downstream) sites. The lentiviral vector expressing full length AR was then packaged in lentivirus and the HeLa HLR cells were infected as described below in the sub-section “Lentivirus-mediated-Transduction.” After 72 hours (h) of infection, 2 ug/mL of puromycin was added to the culture medium to select for the transduced cells. The cells were plated at low density for colony formation (20-40 colonies) in a 100 mm dish. Clonal cells were isolated using cloning cylinders from CORNING (Cat. #3166-8). The selected clones were further expanded and then tested for luciferase induction by testosterone. The clone that gave the greatest luciferase signal to noise ratio in response to testosterone treatment was then chosen for use in the primary screening assay for high throughput small molecule screening.
For high throughput screening, recombinant primary screening cells were first depleted of hormone by growing them for 24h in medium in which the serum used was heat-inactivated and charcoal-stripped. The cells were then plated in 384-well white flat bottom plates (5,000 cells/well) (Corning Product #3570) using a Multidrop (Thermo Fisher Scientific, Waltham, Mass.). The plates were then incubated for 24h prior to adding test compounds. The following day test compounds from the LOPAC, Prestwick, or Maybridge Hitfinder libraries were added precisely in a 0.2 μL volume in the test wells using a Biomek FX liquid handler (Beckman Coutler, Break, Calif.) to achieve final media concentration of 10 μM of each test compound. Using the Multidrop (ThermoLab Systems, Helsinki, Finland), testosterone was added in addition to the test compounds to achieve a final media concentration of 10 nM. As the test compounds were re-constituted from powder stocks using dimethyl sulfoxide (DMSO) as the solvent, the final media concentration of DMSO was 0.4% v/v. For the assay negative control on each plate, one row of wells on each plate contained 10 nM testosterone and 0.4% v/v of DMSO. For the assay positive control on each plate, one row of wells on each plate contained 10 nM testosterone and 10 uM enzalutamide dissolved in DMSO (0.4% v/v of DMSO in the wells). The plates were incubated for 24h at 37° C. in 5% CO2. The medium was then aspirated leaving a residual volume 10 μl using an Elx 405-plate washer (Bio Tek U.S.). Then, 10 uL of the assay reagent Bright-Glo (Promega Corp., Madison Wis.) was added to each well. […]
On the technique in general: Reporter assays use an easily measured gene product as a stand-in for the process of interest.

The subject of experiment [2] is activation of ELK1 by MEK/ERK. The experiment in a line: Gal4-ELK1 reporter activation by constitutively active MEK1 in transfected HeLa cells. The experiment is classed as cell-based. The following applies: HeLa cells with caMEK1; trametinib 1 μM, KCI807 20 μM. The protocol: FIG. 8 is a graph showing results of co-transfection of HeLa cells with the Gal4-TATA-Luc construct and the expression plasmid for the Gal4-ELK1 fusion protein. In addition the cells were transfected with an expression plasmid for a constitutively active MEK1 protein (caMEK1). The cells were then treated with the MEK1 inhibitor, trametinib (1 μM), KCI807 (20 μM), or vehicle (DMSO). Cells were harvested 48h post transfection and luciferase activity was measured. In all panels, the error bars represent standard deviation of experimental triplicates. *P<0.001
Hela Cells were plated in a 24-well plate at a concentration of 75,000 cells/well in antibiotic-free red DMEM. The following day the cells were transfected with a total of 300 ng of plasmid DNA/well using Lipofectamine 2000. The cells were incubated for 24h then lysed using luciferase assay lysis buffer 5X from Promega. The luciferase activity of the cell lysates were measured using firefly substrate from Promega and a luminometer (Lumat LB9501, Berthold, Wildbad, Germany).
As a secondary test of target selectivity, the effect of 5,3′-dihydroxyflavone on activation of ELK1 by MEK/ERK was examined using HeLa cells co-transfected with the Gal4-TATA-Luc construct, the expression plasmid for the Gal4-ELK1 fusion protein and either an expression plasmid for a constitutively active MEK1 protein (caMEK1) or vector control.

Experiment [3] relates to DU145 (prostate cancer cells), AR-negative. The experiment in a line: Cell monolayer growth assay (MTT). The experiment is classed as cell-based. The protocol: FIG. 12A is a graph showing the effect of KCI807 on in vitro growth of AR-negative cell line Du145 cells measured by the MTT assay. All values were plotted relative to the Day zero value.
FIG. 16E is a graph showing the effect of 5′-Fluoro-5,3′-Dihydroxyflavone at various concentrations on growth of DU145 cells.
Cells were trypsinized and 3000-4000 cells/well were seeded in 96-well plates coated with poly-D-lysine. The cells were seeded in phenol red-free medium supplemented with 10% FBS, 100 units/ml penicillin, 100 μg/ml streptomycin, 2 mM L-glutamine mixture and sodium pyruvate (1 mM) for LNCaP cells and phenol red-free medium supplemented with 10% FBS, 100 units/ml penicillin, 100 μg/ml streptomycin and 2 mM L-glutamine mixture for VCaP, 22Rv1, DU145, HeLa, HEK293 and H1650 cells. The cells were grown at 37° C. in 5% CO2. Twenty four hours after seeding in the 96-well plates, the cells were treated with the indicated concentration of KCI807 or DMSO (vehicle). The cells were re-treated on Day 3 by removing half the volume of medium and replacing it with fresh treated medium. Cell viability was determined using the MTT assay from day zero until day five. […] The formazan crystal sediments were dissolved in 100 μL of DMSO, and the absorbance at 570 nm was measured using the BioTek Synergy 2 Microplate Reader (BioTek, Winooski, Vt.). […]

As for `CNC(=O)c1ccc(N2C(=S)N(c3ccc(C#N)c(C(F)(F)F)c3)C(=O)C2(C)C)cc1F` [enzalutamide], in experiment [1] (testosterone-treated recombinant HeLa cells, luciferase), the “inhibition of ELK1-dependent promoter activation by AR (in words)” value was “completely suppressed the signal”.

With `O=c1cc(-c2cc(O)cc(F)c2)oc2cccc(O)c12` [5′-fluoro-5,3′-dihydroxyflavone], the “inhibition of luciferase reporter activation by MEK1 (activation of ELK1 by MEK/ERK)” value in experiment [2] was “did not affect”. The “growth of DU145 cells” value in experiment [3] is listed as “did not inhibit growth”. Besides, the “selectivity for ELK1-dependent versus ARE-dependent promoter activity” value in experiment [1] (primary versus counter screening assay) is recorded as “more selective for the ELK1-dependent promoter activity than ARE-dependent activity”.

With `O=c1cc(-c2cccc(O)c2)oc2cccc(O)c12` [KCI807, 5,3′-dihydroxyflavone], the “inhibition of luciferase reporter activation by MEK1 (activation of ELK1 by MEK/ERK)” value in experiment [2] is “did not inhibit”. Further, the “growth of DU145 cells” value in experiment [3] is given as “did not appreciably affect the growth”.

The values above are taken from patent publication US11185527B2, “Methods and compositions relating to steroid hormone receptor-dependent cancers” (Wayne State University, priority 2017, dated 2021).
